Data reported in patent publication US9233964B2, “Sulfamide piperazine derivatives as protein tyrosine kinase inhibitors and pharmaceutical use therof” (LEO PHARMA A/S, priority 2011, dated 2016).

How the values were obtained:
Format in all cases: biochemical
JAK1 = biological target: T1, JAK1 (Homo sapiens, UniProt P23458); test: JAK kinase assay (HTRF, phosphorylation of synthetic peptide), JAK1; conditions: catalytic domain, ATP at Km (7 μM); read-out: JAK1 kinase inhibitory activity (EC50)
T1 construct: JAK1 (aa 850-1154) and TYK2 (aa 871-1187) are expressed with an N-terminally fused GST-tag; GST (N); purchased Carna Biosciences, Inc; host or cells: baculovirus expression system
Summary of the method: (§1)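 Catalytic-domain human JAK1 (GST-tagged, aa 850-1154) or His-tagged JAK2, baculovirus-expressed, phosphorylated 1 µM biotinylated TK peptide at Km ATP (JAK1 7 µM, 10 mM MgCl2, 50 nM SEB; JAK2 4 µM, 5 mM MgCl2) in pH 7.0 Hepes, 20-30 min RT. EDTA stop; overnight streptavidin-XL665/cryptate HTRF read.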

JAK2 = biological target: T2, JAK2 (Homo sapiens, UniProt O60674); test: JAK kinase assay (HTRF, phosphorylation of synthetic peptide), JAK2; conditions: catalytic domain, ATP at Km (4 μM); read-out: JAK2 kinase inhibitory activity (EC50)
T2 construct: All four purified enzymes contain only the catalytic domain; His (N); purchased Carna Biosciences, Inc; host or cells: baculovirus expression system
Summary of the method: as §1

TYK2 = biological target: T3, TYK2 (Homo sapiens, UniProt P29597); test: JAK kinase assay (HTRF, phosphorylation of synthetic peptide), TYK2; conditions: catalytic domain, ATP at Km (13 μM); read-out: TYK2 kinase inhibitory activity (EC50)
T3 construct: JAK1 (aa 850-1154) and TYK2 (aa 871-1187) are expressed with an N-terminally fused GST-tag; GST (N); purchased Carna Biosciences, Inc; host or cells: baculovirus expression system
T3 sequence (P29597 871-1187): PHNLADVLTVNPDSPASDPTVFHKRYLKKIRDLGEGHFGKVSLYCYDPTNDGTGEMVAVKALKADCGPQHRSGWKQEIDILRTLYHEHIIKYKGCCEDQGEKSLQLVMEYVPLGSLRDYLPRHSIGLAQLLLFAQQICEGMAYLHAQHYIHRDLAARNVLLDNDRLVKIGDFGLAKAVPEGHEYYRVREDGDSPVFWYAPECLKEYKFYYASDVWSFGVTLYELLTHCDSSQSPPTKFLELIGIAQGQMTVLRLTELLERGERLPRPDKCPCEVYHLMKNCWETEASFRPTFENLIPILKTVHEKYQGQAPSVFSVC
Summary of the method: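 1 µM biotinylated TK peptide at Km ATP in pH 7.0 Hepes, 20-30 min RT. EDTA stop; overnight streptavidin-XL665/cryptate HTRF read.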

JAK3 = biological target: T4, JAK3 (Homo sapiens, UniProt P52333); test: JAK kinase assay (HTRF, phosphorylation of synthetic peptide), JAK3; conditions: catalytic domain, ATP at Km (2 μM); read-out: JAK3 kinase inhibitory activity (EC50)
T4 construct: All four purified enzymes contain only the catalytic domain; His (N); purchased Carna Biosciences, Inc; host or cells: baculovirus expression system
T4 sequence (P52333 822-1111 limits assumed): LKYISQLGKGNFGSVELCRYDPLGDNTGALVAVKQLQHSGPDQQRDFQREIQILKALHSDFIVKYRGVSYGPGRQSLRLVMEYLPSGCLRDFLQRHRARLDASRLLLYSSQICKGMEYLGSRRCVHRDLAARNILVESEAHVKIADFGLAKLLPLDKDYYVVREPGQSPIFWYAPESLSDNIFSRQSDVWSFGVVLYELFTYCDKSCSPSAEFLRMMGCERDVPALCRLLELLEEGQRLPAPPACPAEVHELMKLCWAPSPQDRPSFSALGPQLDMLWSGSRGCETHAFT

T1 sequence (P23458 850-1154): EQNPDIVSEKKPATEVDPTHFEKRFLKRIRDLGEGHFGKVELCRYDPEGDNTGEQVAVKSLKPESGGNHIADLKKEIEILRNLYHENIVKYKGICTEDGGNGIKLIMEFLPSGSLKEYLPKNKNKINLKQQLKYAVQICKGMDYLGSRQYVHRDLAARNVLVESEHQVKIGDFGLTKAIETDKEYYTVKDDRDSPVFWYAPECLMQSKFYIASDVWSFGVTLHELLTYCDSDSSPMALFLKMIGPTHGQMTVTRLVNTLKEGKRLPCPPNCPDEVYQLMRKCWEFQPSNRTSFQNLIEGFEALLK
T2 sequence (O60674 849-1124 limits assumed): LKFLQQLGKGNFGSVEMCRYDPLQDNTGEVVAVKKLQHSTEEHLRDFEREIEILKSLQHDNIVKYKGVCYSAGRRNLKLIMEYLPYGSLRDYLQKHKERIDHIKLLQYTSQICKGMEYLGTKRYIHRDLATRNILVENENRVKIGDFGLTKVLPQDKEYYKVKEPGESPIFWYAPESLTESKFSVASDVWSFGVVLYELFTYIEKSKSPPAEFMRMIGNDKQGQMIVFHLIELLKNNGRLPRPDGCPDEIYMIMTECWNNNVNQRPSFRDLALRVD

SMILES: CCCN(CCc1ccccc1)S(=O)(=O)N1CCN(c2ncnc3[nH]ccc23)CC12CC2 [Example 7, 7-(7H-Pyrrolo[2,3-d]pyrimidin-4-yl)-4,7-diaza-spiro[2.5]octane-4-sulfonic acid phenethyl-propyl-amide]
- EC50 (JAK1): < 0.1 µM
- EC50 (JAK2): < 0.1 µM
- EC50 (TYK2): > 0.5 µM
- EC50 (JAK3): 0.1 to 0.5 µM

SMILES: CN(c1ccccc1)S(=O)(=O)N1CCN(c2ncnc3[nH]ccc23)CC12CC2 [Example 40, 7-(7H-Pyrrolo[2,3-d]pyrimidin-4-yl)-4,7-diaza-spiro[2.5]octane-4-sulfonic acid methyl-phenyl-amide]
- EC50 (JAK1): < 0.1 µM
- EC50 (JAK2): < 0.1 µM
- EC50 (TYK2): 0.1 to 0.5 µM
- EC50 (JAK3): 0.1 to 0.5 µM

SMILES: CN(C[C@H]1CCCN1S(C)(=O)=O)S(=O)(=O)N1CCN(c2ncnc3[nH]ccc23)CC12CC2 [Example 181, N-methyl-N-[[(2R)-1-methylsulfonylpyrrolidin-2-yl]methyl]-5-(7H-pyrrolo[2,3-d]pyrimidin-4-yl)-5,8-diazaspiro[2.5]octane-8-sulfonamide]
- EC50 (JAK1): < 0.1 µM
- EC50 (JAK2): < 0.1 µM
- EC50 (TYK2): < 0.1 µM
- EC50 (JAK3): < 0.1 µM

SMILES: CN(Cc1ccc(F)cc1)S(=O)(=O)N1CCN(c2ncnc3[nH]ccc23)CC12CC2 [Example 79, N-[(4-fluorophenyl)methyl]-N-methyl-5-(7H-pyrrolo[2,3-d]pyrimidin-4-yl)-5,8-diazaspiro[2.5]octane-8-sulfonamide]
- EC50 (JAK1): < 0.1 µM
- EC50 (JAK2): < 0.1 µM
- EC50 (TYK2): 0.1 to 0.5 µM
- EC50 (JAK3): < 0.1 µM

SMILES: CN(CC1CCCN(C(=O)CCC#N)C1)S(=O)(=O)N1CCN(c2ncnc3[nH]ccc23)CC12CC2 (centres unmarked) [Example 153, N-[[1-(3-cyanopropanoyl)-3-piperidyl]methyl]-N-methyl-5-(7H-pyrrolo[2,3-d]pyrimidin-4-yl)-5,8-diazaspiro[2.5]octane-8-sulfonamide]
- EC50 (JAK1): < 0.1 µM
- EC50 (JAK2): < 0.1 µM
- EC50 (TYK2): > 0.5 µM
- EC50 (JAK3): 0.1 to 0.5 µM

SMILES: O=S(=O)(N(CCO)CCO)N1CCN(c2ncnc3[nH]ccc23)CC12CC2 [Example 54, 7-(7H-Pyrrolo[2,3-d]pyrimidin-4-yl)-4,7-diaza-spiro[2.5]octane-4-sulfonic acid bis-(2-hydroxy-ethyl)-amide]
- EC50 (JAK1): < 0.1 µM
- EC50 (JAK2): < 0.1 µM
- EC50 (TYK2): 0.1 to 0.5 µM
- EC50 (JAK3): < 0.1 µM

SMILES: CN(CC1CCS(=O)(=O)CC1)S(=O)(=O)N1CCN(c2ncnc3[nH]ccc23)CC12CC2 [Example 168, N-[(1,1-dioxothian-4-yl)methyl]-N-methyl-5-(7H-pyrrolo[2,3-d]pyrimidin-4-yl)-5,8-diazaspiro[2.5]octane-8-sulfonamide]
- EC50 (JAK1): < 0.1 µM
- EC50 (JAK2): < 0.1 µM
- EC50 (TYK2): < 0.1 µM
- EC50 (JAK3): < 0.1 µM

SMILES: N#CCCCN(C1CCC1)S(=O)(=O)N1CCN(c2ncnc3[nH]ccc23)CC12CC2 [Example 102, N-(3-cyanopropyl)-N-cyclobutyl-5-(7H-pyrrolo[2,3-d]pyrimidin-4-yl)-5,8-diazaspiro[2.5]octane-8-sulfonamide]
- EC50 (JAK1): < 0.1 µM
- EC50 (JAK2): < 0.1 µM
- EC50 (TYK2): 0.1 to 0.5 µM
- EC50 (JAK3): < 0.1 µM

SMILES: CN(Cc1ccno1)S(=O)(=O)N1CCN(c2ncnc3[nH]ccc23)CC12CC2 [Example 68, N-(isoxazol-5-ylmethyl)-N-methyl-5-(7H-pyrrolo[2,3-d]pyrimidin-4-yl)-5,8-diazaspiro[2.5]octane-8-sulfonamide]
- EC50 (JAK1): < 0.1 µM
- EC50 (JAK2): < 0.1 µM
- EC50 (TYK2): 0.1 to 0.5 µM
- EC50 (JAK3): < 0.1 µM

SMILES: CN(CC1CCN(C(=O)C(O)CO)C1)S(=O)(=O)N1CCN(c2ncnc3[nH]ccc23)CC12CC2 (centres unmarked) [Example 127, N-[[1-(2,3-dihydroxypropanoyl)pyrrolidin-3-yl]methyl]-N-methyl-5-(7H-pyrrolo[2,3-d]pyrimidin-4-yl)-5,8-diazaspiro[2.5]octane-8-sulfonamide]
- EC50 (JAK1): < 0.1 µM
- EC50 (JAK2): < 0.1 µM
- EC50 (TYK2): > 0.5 µM
- EC50 (JAK3): 0.1 to 0.5 µM

SMILES: CCCC(C)NS(=O)(=O)N1CCN(c2ncnc3[nH]ccc23)CC12CC2 (centres unmarked) [Example 143, N-(1-methylbutyl)-5-(7H-pyrrolo[2,3-d]pyrimidin-4-yl)-5,8-diazaspiro[2.5]octane-8-sulfonamide]
- EC50 (JAK1): < 0.1 µM
- EC50 (JAK2): < 0.1 µM
- EC50 (TYK2): > 0.5 µM
- EC50 (JAK3): 0.1 to 0.5 µM

SMILES: CN(C[C@@H]1CCCN1)S(=O)(=O)N1CCN(c2ncnc3[nH]ccc23)CC12CC2 [Int 52]
- EC50 (JAK1): < 0.1 µM
- EC50 (JAK2): < 0.1 µM
- EC50 (TYK2): > 0.5 µM
- EC50 (JAK3): 0.1 to 0.5 µM

SMILES: CCN(C1CCC1)S(=O)(=O)N1CCN(c2ncnc3[nH]ccc23)CC12CC2 [Example 99, N-cyclobutyl-N-ethyl-5-(7H-pyrrolo[2,3-d]pyrimidin-4-yl)-5,8-diazaspiro[2.5]octane-8-sulfonamide]
- EC50 (JAK1): < 0.1 µM
- EC50 (JAK2): < 0.1 µM
- EC50 (TYK2): < 0.1 µM
- EC50 (JAK3): 0.1 to 0.5 µM

SMILES: CN(C(=O)CCC1CCCC1)S(=O)(=O)N1CCN(c2ncnc3[nH]ccc23)CC12CC2 [Example 134, 3-cyclopentyl-N-methyl-N-[[5-(7H-pyrrolo[2,3-d]pyrimidin-4-yl)-5,8-diazaspiro[2.5]octan-8-yl]sulfonyl]propanamide]
- EC50 (JAK1): < 0.1 µM
- EC50 (JAK2): 0.1 to 0.5 µM
- EC50 (TYK2): > 0.5 µM
- EC50 (JAK3): > 0.5 µM

SMILES: CN(C(=O)CC1CCCC1)S(=O)(=O)N1CCN(c2ncnc3[nH]ccc23)CC12CC2 [Example 133, 2-cyclopentyl-N-methyl-N-[[5-(7H-pyrrolo[2,3-d]pyrimidin-4-yl)-5,8-diazaspiro[2.5]octan-8-yl]sulfonyl]acetamide]
- EC50 (JAK1): < 0.1 µM
- EC50 (JAK2): < 0.1 µM
- EC50 (TYK2): 0.1 to 0.5 µM
- EC50 (JAK3): 0.1 to 0.5 µM

SMILES: N#CCCN(CC1CCCO1)S(=O)(=O)N1CCN(c2ncnc3[nH]ccc23)CC12CC2 (centres unmarked) [Example 142, N-(2-cyanoethyl)-5-(7H-pyrrolo[2,3-d]pyrimidin-4-yl)-N-(tetrahydrofuran-2-ylmethyl)-5,8-diazaspiro[2.5]octane-8-sulfonamide]
- EC50 (JAK1): < 0.1 µM
- EC50 (JAK2): < 0.1 µM
- EC50 (TYK2): 0.1 to 0.5 µM
- EC50 (JAK3): < 0.1 µM

SMILES: O=S(=O)(NC[C@@H]1CCCN1Cc1ccccc1)N1CCN(c2ncnc3[nH]ccc23)CC12CC2 [Example 175, N-[[(2S)-1-benzylpyrrolidin-2-yl]methyl]-5-(7H-pyrrolo[2,3-d]pyrimidin-4-yl)-5,8-diazaspiro[2.5]octane-8-sulfonamide]
- EC50 (JAK1): < 0.1 µM
- EC50 (JAK2): < 0.1 µM
- EC50 (TYK2): 0.1 to 0.5 µM
- EC50 (JAK3): 0.1 to 0.5 µM

SMILES: O=S(=O)(N(CCc1ccccc1)CCc1ccc(F)cc1)N1CCN(c2ncnc3[nH]ccc23)CC12CC2 [Example 47, 7-(7H-Pyrrolo[2,3-d]pyrimidin-4-yl)-4,7-diaza-spiro[2.5]octane-4-sulfonic acid [2-(4-fluoro-phenyl)-ethyl]-phenethyl-amide]
- EC50 (JAK1): 0.1 to 0.5 µM
- EC50 (JAK2): 0.1 to 0.5 µM
- EC50 (TYK2): > 0.5 µM
- EC50 (JAK3): > 0.5 µM

SMILES: O=S1(=O)CCC(CN(CCO)S(=O)(=O)N2CCN(c3ncnc4[nH]ccc34)CC23CC3)CC1 [Example 170, N-[(1,1-dioxothian-4-yl)methyl]-N-(2-hydroxyethyl)-5-(7H-pyrrolo[2,3-d]pyrimidin-4-yl)-5,8-diazaspiro[2.5]octane-8-sulfonamide]
- EC50 (JAK1): < 0.1 µM
- EC50 (JAK2): < 0.1 µM
- EC50 (TYK2): < 0.1 µM
- EC50 (JAK3): < 0.1 µM

SMILES: CN(CCC1CCCC1)S(=O)(=O)N1CCN(c2ncnc3[nH]ccc23)CC12CC2 [Example 74, N-(2-cyclopentylethyl)-N-methyl-5-(7H-pyrrolo[2,3-d]pyrimidin-4-yl)-5,8-diazaspiro[2.5]octane-8-sulfonamide]
- EC50 (JAK1): < 0.1 µM
- EC50 (JAK2): < 0.1 µM
- EC50 (TYK2): 0.1 to 0.5 µM
- EC50 (JAK3): 0.1 to 0.5 µM

SMILES: CN(CC1CCNCC1)S(=O)(=O)N1CCN(c2ncnc3[nH]ccc23)CC12CC2 [Int 26]
- EC50 (JAK1): < 0.1 µM
- EC50 (JAK2): < 0.1 µM
- EC50 (TYK2): > 0.5 µM
- EC50 (JAK3): 0.1 to 0.5 µM

SMILES: CN(Cc1cccc(C#N)c1)S(=O)(=O)N1CCN(c2ncnc3[nH]ccc23)CC12CC2 [Example 13, 7-(7H-Pyrrolo[2,3-d]pyrimidin-4-yl)-4,7-diaza-spiro[2.5]octane-4-sulfonic acid (3-cyano-benzyl)-methyl-amide]
- EC50 (JAK1): < 0.1 µM
- EC50 (JAK2): < 0.1 µM
- EC50 (TYK2): 0.1 to 0.5 µM
- EC50 (JAK3): < 0.1 µM

SMILES: CN(CC1CCN(S(=O)(=O)CCCC#N)CC1)S(=O)(=O)N1CCN(c2ncnc3[nH]ccc23)CC12CC2 [Example 159, N-[[1-(3-cyanopropylsulfonyl)-4-piperidyl]methyl]-N-methyl-5-(7H-pyrrolo[2,3-d]pyrimidin-4-yl)-5,8-diazaspiro[2.5]octane-8-sulfonamide]
- EC50 (JAK1): < 0.1 µM
- EC50 (JAK2): < 0.1 µM
- EC50 (TYK2): 0.1 to 0.5 µM
- EC50 (JAK3): < 0.1 µM
